# Measurements: US20110263539A1, “SHIP 1 MODULATOR COMPOUNDS” (THE UNIVERSITY OF BRITISH COLUMBIA, priority 2006, published 2011)
# Columns and labels:
# [1] = test system: SHIP+/+ bone marrow derived macrophages; assay: LPS stimulation of SHIP+/+ bone marrow derived macrophages; assay type: cell-based, mice
# Description: Bone marrow cells were aspirated from 4 to 8 week old C57B16×129Sv mixed background mice and SHIP and SHIP cells prepared as described previously. Bone marrow derived macrophages from SHIP^+/+ and SHIP^−/− mice were obtained and maintained in IMDM supplemented with 10% FCS, 150 μM MTG, 2% C127 cell conditioned medium as a source of macrophage colony stimulating factor (M-CSF) (macrophage medium)
# LPS stimulation of macrophages. For the analysis of LPS-stimulated TNFα production, 2×10^5 cells were plated the night before in 24 well plates in macrophage medium. The next day, the medium was changed and AQX-016A or carrier was added to cells at the indicated concentrations for 30 min prior to the addition of 10 ng/mL LPS. Supernatants were collected for TNFα determination by ELISA (BD Biosciences, Mississauga, ON, Canada). For analysis of intracellular signaling, 2×10^6 cells were plated the night before in 6 cm tissue culture plates. The next day, the cells were cultured in macrophage medium without M-CSF for 1 hr at 37° C. and then pretreated with AQX-016A or carrier for 30 min prior to the addition of 10 ng/mL LPS for 15 min. Cells were washed with 4° C. PBS and resuspended in lysis buffer (50 mM Hepes, 2 mM EDTA, 1 mM NaVO4, 100 mM NaF, 50 mM NaPPi and 1% NP40) supplemented with Complete Protease Inhibitor Cocktail (Roche, Montreal, Canada). Lysates were rocked at 4° C. for 30 min and clarified by centrifuging 20 min at 12000×g. Lysates were then made 1× in Laemmli's buffer, boiled 2 min and loaded onto 7.5% SDS polyacrylamide […]. Immunoblot analysis for phospho PKB (Cell Signalling, Mississauga, Ont), SHIP and actin (Santa Cruz, Santa Cruz, Calif.) were carried out as described previously.
# The target specificity and biological efficacy of AQX-016A were assessed by comparing AQX-016A's effects on PI3K-regulated processes in primary SHIP^+/+ vs SHIP^−/− macrophages and mast cells. […] LPS stimulation of macrophages is associated with a PIP3-dependent release of pro-inflammatory mediators such as TNFα. […]
# J774.1a macrophage cells = assay: Macrophage TNF-α NO assay (Assay 3); assay type: cell-based; conditions: 10 μg/ml test compound, LPS, 24 hr, Griess reagent; note: key: a ‘+’ indicates a positive result for desired activity; a ‘−’ indicates a negative result for desired activity
# Description: Assay 3) Macrophage TNF-α NO assay. J774.1a macrophage cells were treated with 10 μg/ml of test compound dissolved in solvent for 40 minutes prior to the addition of LPS. Culture supernatants were collected after 24 hr. for determination of NO concentration using the Griess reagent.
# [2] = test system: 100 protein kinase and phosphatase targets; assay: Profiling on 100 protein kinase and phosphatase targets; assay type: biochemical; conditions: 2 μM final concentration
# Description: Compound profiling activity was undertaken using 100 protein kinase and phosphatase targets by SignalChem (Richmond, BC, Canada. www.signalchem.com) against compound Compound 100 (2 μM final concentration). Protein kinase assays were performed in the presence of 50 μM ATP at 30° C. for 15 min. Protein phosphatase activities were determined using pNPP as substrate and were also performed at 37° C. for 15 min. The activity of the enzymes in the presence of Compound 100 was compared to that in the vehicle control and expressed as a % change in activity relative to that observed in the vehicle control. Changes in activity of <25% were not considered significant. Enzymes affected by Compound 100 are plotted in an expanded graph in FIG. 12B.
# [3] = Initial toxicology studies; assay type: in vivo; conditions: data not shown
# Excerpt: A novel paradigm for inhibiting PI3K signaling through activation of the phosphatases that negatively regulate this pathway is provided. SHIP is a particularly good target for immune/hematopoietic disorders because of its restricted expression to hematopoietic cells. Because the relative activity of phosphatases present in a cell will influence the efficacy of kinase inhibitors, as discussed by Knight and Shokat, SHIP agonists may also be used to potentiate the activation of PI3K inhibitors and promote tissue targeting of PI3K inhibitors to the ematopoietic/immune cell compartment.
# [4] = test system: luciferase expressing OPM2 cells; assay: In vivo Multiple Myeloma (MM) assay (Assay 8); set-up: species or system Mice; conditions: 50 mg/kg every 3 days, subcutaneous oil depot
# Description: Assay 8) In vivo Multiple Myeloma (MM) assay. Mice were inoculated with at two sites each with 3×10^6 luciferase expressing OPM2 cells suspended in 50 μL of growth medium and 50 μL of Matrigel basement membrane matrix (Becton Dickenson; Bedford, Mass.). Tumors were injected subcutaneously in the upper and lower flanks of the mice and allowed to establish for 2 weeks. After 2 weeks, a test compound or control vehicle was administered in a subcutaneous oil depot at a dose of 50 mg/kg every 3 days.
# Tumors were measured using bioluminescence imaging on the Xenogen IVIS 200. Mice received intra-peritoneal injections of 200 μL of D-luciferin at 3.75 mg/mL in sterile PBS. Mice were then anesthetized with isofluorane and imaged 15 minutes post-injection of luciferin. Quantification of tumor size was performed using the Living Image™ software.
# MM Xenograft murine model. Mice were inoculated with at two sites each with 3×10^6 luciferase expressing OPM2 cells suspended in 50 μL of growth medium and 50 μL of Matrigel basement membrane matrix (Becton Dickenson; Bedford, Mass.). Tumors were injected subcutaneously in the upper and lower flanks of the mice and allowed to establish for 2 weeks. […]
# Tumors were measured using bioluminescence imaging on the Xenogen IVIS 200. […] Quantification of tumor size was performed using the Living Image™ software. […]
structure (smiles),measurement,setting,value
Cc1cc(O)cc2c1[C@]1(C)CCC3C(C)(C)CCC[C@]3(C)[C@H]1C2 (stereo partly drawn) [Compound 100],"inhibition of TNFα production, SHIP+/+ vs SHIP−/− macrophages",[1]; LPS stimulated,selectively inhibited
same,EC50 for inhibition of TNFα production,[1]; LPS stimulated SHIP+/+ macrophages,submicromolar
same,Assay Number 3: Macrophage NO,J774.1a macrophage cells,+
same,off-target effects,[2],minimal off-target effects
same,peripheral blood cell counts or bone marrow progenitor numbers,[3],do not significantly affect
same,Assay Number 8: In vivo Multiple Myeloma (MM) assay,[4],+
